Results reported in US8349309B2, “Polymeric coupling agents and pharmaceutically-active polymers made therefrom” (Interface Biologics Inc., priority 2004, dated 2013).

Tested on: Pseudomonas aeruginosa
Test: Macro-dilution minimum inhibitory concentration (MIC) assay
Format: cell-based
Method: Minimum inhibitory concentration (MIC) assays were used to evaluate the antimicrobial activity of incubating solutions obtained from drug polymer biodegradation studies against P. aeruginosa. Turbidity of each culture was recorded to evaluate the inhibitory properties of degradation solution of drug polymers.
The same NF polymer incubation solutions assayed via HPLC were also evaluated for antimicrobial activity using a biological assay. A macro-dilution minimum inhibitory concentration (MIC) assay was employed to determine the concentration of antimicrobial (norfloxacin) that would inhibit the growth of a pathogen often associated with device-related infections, Pseudomonas aeruginosa. […] Incubation solutions from both enzyme and buffer control treatment of NF polymer were used in a biological assay matrix that was designed to estimate the concentration of norfloxacin as a function of incubation time and treatment.

Substance: 1-ethyl-6-fluoro-1,4-dihydro-4-oxo-7-piperazine-quinoline-3-carboxylic acid [norfloxacin]
- MIC: 0.8 mu g/mL
